Source: patent US20250281457A1, “TREATMENT OR PREVENTION OF DENGUE VIRAL INFECTION” (Janssen Pharmaceuticals, Inc., priority 2022, published 2025)
Read-outs that look alike come from different tables or passages of the source.

Assay: Plasma pharmacokinetics with loading dose and weekly or twice weekly maintenance dosing, fed (Example 5)
Format: in vivo, human
Settings: for AUC: read-out: Mean AUCτ (SD); for Tmax: read-out: Median tmax (min-max); for Cmax: read-out: Mean Cmax (SD)
Method: A pharmaceutical formulation comprising Compound (a) as described in Example 2 (SF2a/b) was administered as an oral dosage form, to healthy adult participants, in a fed state. Four dose regimens were applied: • Panel I (weekly dosing): 450 mg of Compound (a) twice a day (BID) for two days: on day 1 (D1) and on day 2 (D2) (loading dose); and then 900 mg once a week (Q7D), on day 3 (D3), day 10 (D10), day 17 (D17), and on day 24 (D24) (maintenance dose). • Panel II (biweekly dosing): 450 mg of Compound (a) twice a day (BID) for two days: on day 1 (D1) and on day 2 (D2); (loading dose) and then 450 mg once every 3 (Q3D) or 4 days (Q4D): on day 3 (D3), on day 6 (D6), on day 10 (D10), on day 13 (D13), on day 17 (D17), on day 20 (D20), on day 24 (D24), and on day 27 (D27), for a total of 900 mg each week administered through two doses of 450 mg each (maintenance dose). • Panel III (weekly dosing): 150 mg of Compound (a) twice a day (BID) for two days: on day 1 (D1) and on day 2 (D2) (loading dose); and then 300 mg once a week (Q7D): on day 3 (D3), day 10 (D10), day 17 (D17), and on day 24 (D24) (maintenance dose). • Panel IV (biweekly dosing): 150 mg of Compound (a) twice a day (BID) for two days: on day 1 (D1) and on day 2 (D2) (loading dose); and then 150 mg Q3D or Q4D: on day 3 (D3), on day 6 (D6), on day 10 (D10), on day 13 (D13), on day 17 (D17), on day 20 (D20), on day 24 (D24), and on day 27 (D27), for a total of 300 mg each week administered through two doses of 150 mg each (maintenance dose).
Oral dosage forms were administered together with approximately 240 mL of non-carbonated water under fed conditions, and were taken within 10 minutes after completion of normal standardized normal fat breakfast in the morning or after completion of normal standardized normal fat dinner in case of evening dosing. Intake of Compound (a) took place at around the same time each day. Intake of Compound (a) marked time 0 hours.
A standardized normal fat meal was served approximately 30 minutes before study drug intake. The standardized normal fat meal contained approximately 21 g of fat, 67 g of carbohydrates, 19 g of proteins resulting in around 533 kcal (an example meal is 4 slices of bread, 2 slices of ham or cheese, butter, jelly, and 1 or 2 cups (up to 355 mL) of decaffeinated coffee or tea with milk and/or sugar). The standardized normal fat meal was ingested entirely within 30 minutes or less. Within 10 minutes after completing the meal, but no more than 30 minutes after the start of the meal, study drug was administered. In case of Compound (a) intake in the evening, timing of standardized dinner was aligned to time of drug intake. […]
For Study Panel 1 only, additional whole blood samples were be collected on Days 1, 24, 25, 26, 38, 45, 51, and 59 using venipuncture. The whole blood samples were be used for the determination of Compound (a) whole blood concentrations and for determination of Compound (a) plasma concentrations. To determine Compound (a) venous whole blood concentrations, an aliquot of the whole blood sample was be pipetted onto the TASSO M-20 for better comparison with capillary whole blood samples collected by TASSO M-20. […]
Separation between metabolites and interfering endogenous compounds was achieved by injecting 2 μL sample extract onto an Acquity UPLC BEH C18 column (50×2.1 mm, 1.7 μm, Waters) at 50° C. and using 10 mM ammonium bicarbonate solution as mobile phase A, and methanol: acetonitrile (50:50, v/v) as mobile phase B. A gradient elution at a flow rate of 0.600 mL/min was applied using the following program: 35% B was increased to 90% B in 3 min, was further increased to 98% B at 3.01 min and held constant up to 4.00 min.
A Triple Quad 6500+ mass spectrometer (Sciex) equipped with a turbo ion spray source was used for analyte detection in positive ion mode using electrospray ionization. […]

[1] = Panel I (450 mg BID Days 1-2, then 900 mg Q7D; SF2a/b, fed), Day 2
[2] = Panel II (450 mg BID Days 1-2, then 450 mg Q3D/Q4D; SF2a/b, fed), Day 2
[3] = Panel III (150 mg BID Days 1-2, then 300 mg Q7D; SF2a/b, fed), Day 2
[4] = Panel IV (150 mg BID Days 1-2, then 150 mg Q3D/Q4D; SF2a/b, fed), Day 2
[5] = human, plasma, oral, 150 mg, Panel III (150 mg BID Days 1-2, then 300 mg Q7D; SF2a/b, fed), Day 1
[6] = human, plasma, oral, 150 mg, Panel III (150 mg BID Days 1-2, then 300 mg Q7D; SF2a/b, fed), Day 2
[7] = human, plasma, oral, 150 mg, Panel IV (150 mg BID Days 1-2, then 150 mg Q3D/Q4D; SF2a/b, fed), Day 3
[8] = human, plasma, oral, 150 mg, Panel IV (150 mg BID Days 1-2, then 150 mg Q3D/Q4D; SF2a/b, fed), Day 27

SMILES: COc1cc(NC(C(=O)c2c[nH]c3ccc(OC(F)(F)F)cc23)c2ccc(Cl)cc2OC)cc(S(C)(=O)=O)c1 (centres unmarked) [Compound (a)]
- Mean Cmin (SD) (Panel I (450 mg BID Days 1-2, then 900 mg Q7D; SF2a/b, fed), Day 1): 0.000 (0.000) ng/mL
- Mean Cmin (SD) [1]: 2750 (1089) ng/mL
- Mean Ctrough (SD) [1]: 2780 (1047) ng/mL
- Mean Ctrough (SD) (Panel I (450 mg BID Days 1-2, then 900 mg Q7D; SF2a/b, fed), Day 3): 4370 (976) ng/mL
- Mean Ctrough (SD) (Panel I (450 mg BID Days 1-2, then 900 mg Q7D; SF2a/b, fed), Day 10): 1965 (35.4) ng/mL
- Mean Ctrough (SD) (Panel I (450 mg BID Days 1-2, then 900 mg Q7D; SF2a/b, fed), Day 17): 1500 (113) ng/mL
- Mean Cmin (SD) (Panel II (450 mg BID Days 1-2, then 450 mg Q3D/Q4D; SF2a/b, fed), Day 1): 0.000 (0.000) ng/mL
- Mean Cmin (SD) [2]: 2492 (307) ng/mL
- Mean Ctrough (SD) [2]: 2503 (293) ng/mL
- Mean Ctrough (SD) (Panel II (450 mg BID Days 1-2, then 450 mg Q3D/Q4D; SF2a/b, fed), Day 3): 4132 (401) ng/mL
- Mean Ctrough (SD) (Panel II (450 mg BID Days 1-2, then 450 mg Q3D/Q4D; SF2a/b, fed), Day 6): 2708 (429) ng/mL
- Mean Ctrough (SD) (Panel II (450 mg BID Days 1-2, then 450 mg Q3D/Q4D; SF2a/b, fed), Day 10): 2340 (577) ng/mL
- Mean Ctrough (SD) (Panel II (450 mg BID Days 1-2, then 450 mg Q3D/Q4D; SF2a/b, fed), Day 13): 2343 (639) ng/mL
- Mean Ctrough (SD) (Panel II (450 mg BID Days 1-2, then 450 mg Q3D/Q4D; SF2a/b, fed), Day 17): 2088 (693) ng/mL
- Mean Ctrough (Panel II (450 mg BID Days 1-2, then 450 mg Q3D/Q4D; SF2a/b, fed), Day 20): 2270 (652) ng/mL
- Mean Ctrough (SD) (Panel II (450 mg BID Days 1-2, then 450 mg Q3D/Q4D; SF2a/b, fed), Day 24): 2016 (847) ng/mL
- Mean Ctrough (SD) (Panel II (450 mg BID Days 1-2, then 450 mg Q3D/Q4D; SF2a/b, fed), Day 27): 1928 (605) ng/mL
- Mean Cmin (SD) (Panel III (150 mg BID Days 1-2, then 300 mg Q7D; SF2a/b, fed), Day 1): 0.000 (0.000) ng/mL
- Mean Cmin (SD) [3]: 899 (151) ng/mL
- Mean Ctrough (SD) [3]: 899 (151) ng/mL
- Mean Ctrough (SD) (Panel III (150 mg BID Days 1-2, then 300 mg Q7D; SF2a/b, fed), Day 3): 1582 (298) ng/mL
- Mean Ctrough (SD) (Panel III (150 mg BID Days 1-2, then 300 mg Q7D; SF2a/b, fed), Day 10): 775 (99.3) ng/mL
- Mean Ctrough (SD) (Panel III (150 mg BID Days 1-2, then 300 mg Q7D; SF2a/b, fed), Day 17): 700 (98.1) ng/mL
- Mean Cmin (SD) (Panel IV (150 mg BID Days 1-2, then 150 mg Q3D/Q4D; SF2a/b, fed), Day 1): 0.000 (0.000) ng/mL
- Mean Cmin (SD) [4]: 892 (257) ng/mL
- Mean Ctrough (SD) [4]: 892 (257) ng/mL
- Mean Ctrough (SD) (Panel IV (150 mg BID Days 1-2, then 150 mg Q3D/Q4D; SF2a/b, fed), Day 3): 1472 (385) ng/mL
- Mean Ctrough (SD) (Panel IV (150 mg BID Days 1-2, then 150 mg Q3D/Q4D; SF2a/b, fed), Day 6): 865 (236) ng/mL
- Mean Ctrough (SD) (Panel IV (150 mg BID Days 1-2, then 150 mg Q3D/Q4D; SF2a/b, fed), Day 10): 681 (234) ng/mL
- Mean Ctrough (SD) (Panel IV (150 mg BID Days 1-2, then 150 mg Q3D/Q4D; SF2a/b, fed), Day 13): 689 (238) ng/mL
- Mean Ctrough (SD) (Panel IV (150 mg BID Days 1-2, then 150 mg Q3D/Q4D; SF2a/b, fed), Day 17): 570 (269) ng/mL
- Mean Ctrough (Panel IV (150 mg BID Days 1-2, then 150 mg Q3D/Q4D; SF2a/b, fed), Day 20): 710 (236) ng/mL
- Mean Ctrough (SD) (Panel IV (150 mg BID Days 1-2, then 150 mg Q3D/Q4D; SF2a/b, fed), Day 24): 612 (239) ng/mL
- Mean Ctrough (SD) (Panel IV (150 mg BID Days 1-2, then 150 mg Q3D/Q4D; SF2a/b, fed), Day 27): 623 (237) ng/mL
- maintaining exposures over time with weekly or twice weekly dosing (Panels I-IV, fed): feasible to maintain Compound (a) exposures over time
- AUC [5]: 5680 ng·h/mL
- Tmax [5]: 5 h
- AUC [6]: 16800 ng·h/mL
- Cmax [6]: 1810 ng/mL
- Tmax [6]: 5 h
- Cmax (human, plasma, oral, 150 mg, Panel IV (150 mg BID Days 1-2, then 150 mg Q3D/Q4D; SF2a/b, fed), Day 1): 753 ng/mL
- AUC(0-t) (human, plasma, oral, 150 mg, Panel IV (150 mg BID Days 1-2, then 150 mg Q3D/Q4D; SF2a/b, fed), Day 3, read-out: Mean AUC24 h (SD)): 38600 ng·h/mL
- AUC(0-t) (human, plasma, oral, 150 mg, Panel IV (150 mg BID Days 1-2, then 150 mg Q3D/Q4D; SF2a/b, fed), Day 3, read-out: Mean AUC72 h (SD)): 89200 ng·h/mL
- Cmax [7]: 2120 ng/mL
- Tmax [7]: 5 h
- Cmax (human, plasma, oral, 150 mg, Panel IV (150 mg BID Days 1-2, then 150 mg Q3D/Q4D; SF2a/b, fed), Day 6): 1460 ng/mL
- Cmax (human, plasma, oral, 150 mg, Panel IV (150 mg BID Days 1-2, then 150 mg Q3D/Q4D; SF2a/b, fed), Day 10): 1230 ng/mL
- Cmax (human, plasma, oral, 150 mg, Panel IV (150 mg BID Days 1-2, then 150 mg Q3D/Q4D; SF2a/b, fed), Day 13): 1180 ng/mL
- Cmax (human, plasma, oral, 150 mg, Panel IV (150 mg BID Days 1-2, then 150 mg Q3D/Q4D; SF2a/b, fed), Day 17, n = 3): 1210 ng/mL
- Cmax (human, plasma, oral, 150 mg, Panel IV (150 mg BID Days 1-2, then 150 mg Q3D/Q4D; SF2a/b, fed), Day 20): 1200 ng/mL
- Cmax (human, plasma, oral, 150 mg, Panel IV (150 mg BID Days 1-2, then 150 mg Q3D/Q4D; SF2a/b, fed), Day 24): 1260 ng/mL
- AUC(0-t) (human, plasma, oral, 150 mg, Panel IV (150 mg BID Days 1-2, then 150 mg Q3D/Q4D; SF2a/b, fed), Day 27, read-out: Mean AUC24 h (SD)): 26000 ng·h/mL
- AUC(0-t) (human, plasma, oral, 150 mg, Panel IV (150 mg BID Days 1-2, then 150 mg Q3D/Q4D; SF2a/b, fed), Day 27, read-out: Mean AUC72 h (SD)): 65800 ng·h/mL
- AUC(0-t) (human, plasma, oral, 150 mg, Panel IV (150 mg BID Days 1-2, then 150 mg Q3D/Q4D; SF2a/b, fed), Day 27, read-out: Mean AUClast (SD)): 258000 ng·h/mL
- AUC(0-inf) (human, plasma, oral, 150 mg, Panel IV (150 mg BID Days 1-2, then 150 mg Q3D/Q4D; SF2a/b, fed), Day 27, read-out: Mean AUC∞ (SD)): 274000 ng·h/mL
- Cmax [8]: 1380 ng/mL
- Tmax [8]: 5 h
- AUC(0-t) (human, plasma, oral, 300 mg, Panel III (150 mg BID Days 1-2, then 300 mg Q7D; SF2a/b, fed), Day 3, read-out: Mean AUC24 h (SD)): 52400 ng·h/mL
- AUC(0-t) (human, plasma, oral, 300 mg, Panel III (150 mg BID Days 1-2, then 300 mg Q7D; SF2a/b, fed), Day 3, read-out: Mean AUC72 h (SD)): 122000 ng·h/mL
